Two molecules from patent US12472206B2, “Pharmaceutical composition containing cerium compound as active ingredient” (priority 2020, dated 2025) can be followed below.

SMILES strings stand for the structures. “Also recorded” adds a separate entry of the source.

Series [1] has as its system adenine nephropathy model rats. The series is described as follows: Animal experiment (2) (Example 7): adenine nephropathy model rats fed with cerium-containing feed, blood analysis. Format: in vivo.
Description: Adenine nephropathy model rats were fed with a dispersion (cerium oxide dispersion) that contains cerium(III) ion as a cerium compound containing trivalent cerium, and cerium oxide.
• Rat: Slc:Wistar rat (male) delivered at 12 weeks of age (Japan SLC, Inc.) • Powder feed: AIN-93G powder feed (Funabashi Farm Co., Ltd.) • Feed for laboratory animal: Labo MR Stock (Nosan Corporation) • Adenine: (Tokyo Chemical Industry Co., Ltd.) • Cerium oxide dispersion: Cerium oxide dispersion prepared in [Preparation of Cerium Oxide Dispersion] (aqueous dispersion of cerium oxide with 10.0% by mass cerium oxide, mole ratio of cerium oxide:cerium(III)=9:1 • Cerium(III) chloride: cerium(III) chloride heptahydrate (Nikki Corporation) • Water or hot water: water passed through a water purifier, and boiled in a pot • Mixer for feed preparation: Compact Kitchen Machine MUM4415JP (Bosch GmbH) • Manual sausage maker: sausage machine (COM4SPORT) • Wing blood collection needle for animal experiment: CL-4597 (CLEA Japan, Inc.) [Preparation of Cerium Oxide Dispersion]
A special feed was prepared by modifying step (ii) for preparing the feed for normal group, as described below. […] Approximately 100 mL of hot water was then added evenly.
(§1) A special feed was prepared by modifying steps (i) and (ii) for (2) Feed for Adenine Group, as described below. (i) (Ade+Dispersion (A)): Weighed was 246.1 g of the powder feed, which was then stirred with a kitchen machine. (ii) (Ade+Dispersion (A)): While keeping the feed under stirring, 0.625 g of adenine was added in small portions, the content was stirred with the kitchen machine for 3 minutes, the feed adhered on the wall surface was scraped off, and the content was stirred again for 3 minutes. Next, while keeping the feed under stirring, 32.7 g of cerium oxide dispersion was added in small portions, the content was stirred with the kitchen machine for 3 minutes, the feed adhered on the wall surface was scraped off, and the content was stirred again for 3 minutes. Approximately 70 mL of hot water was then added evenly.
as §1, with “(ii)” for “A special feed was prepared by modifying steps (i) and (ii) for (2) Feed for Adenine Group, as described below. (i) (Ade+Dispersion (A)): Weighed was 246.1 g of the powder feed, which was then stirred with a kitchen machine. (ii)”, “(B)):” for “(A)):”, “98.2” for “32.7”, “12” for “70”
(1) Rats were weighed, and classified into four groups.
FIGS. 12 to 15 illustrate graphs plotting on the ordinates test values of serum creatinine (CRE), blood urea nitrogen (BUN), serum phosphorus (IP), or alanine aminotransferase (ALT) of the blood samples collected at the time of the dissection, and plotting on the abscissae total molar amount of cerium per 100 g of feed.
The effect of cerium(III) chloride was examined with use of the following feeds (4-1) to (4-3), in place of the (3-1) Feed for adenine+cerium oxide dispersion (A) group, and the (3-2) Feed for adenine+cerium oxide dispersion (B) group described in Preparation of Feeds according to Example 7-1. […]

Series [2] in a line: Phosphorus adsorption experiment, Example 2-3 (particle 1 vs lanthanum carbonate). It is filed as binding. As to conditions: one hour. How it is done: Three mmol/L aqueous phosphoric acid solutions with pH 2.5 and pH 7.0 were prepared. The pH was adjusted with Bis-Tris HCl buffer solution and glycine-HCl buffer solution (phosphoric acid, sodium chloride, and glycine from FUJIFILM Wako Pure Chemical Corporation; Bis-Tris from Dojindo Laboratories).
A freely selectable amount of particle 1 was added to each of the aqueous solutions.
Each of these dispersions was kept stirred at 38° C. for one hour in a thermostatic chamber.
Also, a freely selectable amount of a commercially available lanthanum carbonate reagent (from Nikki Corporation) was added in the same way, and each dispersion was kept stirred at 38° C. for one hour in a thermostatic chamber.
Each solution was then centrifuged (10,000×g, 5 min) for solid-liquid separation, and the supernatant was collected.
Phosphoric acid remained in the collected supernatant was evaluated by colorimetry, with use of a commercially available phosphoric acid detection reagent (Trade name: PiBlue Phosphate Assay Kit; POPB-500) that contains molybdenum blue and malachite green.
The reciprocal of the mass of the particle required to entirely adsorb 3 mmol of phosphoric acid was defined as adsorptivity to phosphorus, and was illustrated in FIG. 6.

The test system of series [3] is 5/6 nephrectomized model rats. As to conditions: 5/6 nephrectomized rats, in feed.
Description: Slc:Wistar rat, 5/6 nephrectomized
(1) The 5/6 nephrectomized model rats were weighed, and classified into three groups.
(2) Each group was acclimatized with MR stock feed, under ad libitum feeding and ad libitum water drinking. The feeding cage was conditioned at room temperature 22±2° C., under illumination 12 hours a day.
(3) The animals were then bred with the prepared special feed under ad libitum feeding and ad libitum water drinking. The feeding cage was conditioned similarly to the acclimatization period, at room temperature 22±2° C., under illumination 12 hours a day.
(4) On Days 0, 7, 14, 21, and 28, rats were bred in metabolic cages for 24 hours. The animals were fed with Labo MR stock on Day 0, and with the special feed on days thereafter, during which the amounts of feed consumption, water consumption, urine and feces were measured, and the urine and feces were sampled.
(5) The animals were taken out of the metabolic cage and weighed, followed by blood collection with a winged needle. Approximately 400 μL of blood was collected, incubated at room temperature for one hour, and then centrifuged (1,700×g, 20 min) to obtain serum.
(6) On the final Day 28, the animals were fasted throughout the day, and then dissected. […] The collected blood was centrifuged (1,700×g, 20 min) to obtain serum. Liver, kidney, spleen, small intestine, and stomach of the rats that were exsanguinated to death were sampled. The small intestine and stomach were dissected, removed contents, and rinsed twice with PBS. The above sequence of procedures was repeated three times to assign six animals to each group. […]
The above four items were measured with use of Hitachi 7180 automatic analyzer.
ALT was measured only for blood samples collected on the last day.
[4] abbreviates: adenine nephropathy rats, in feed, blood collected at dissection.

Regarding `O.O.O.O.O.O.O.[Ce+3].[Cl-].[Cl-].[Cl-]` [cerium chloride, cerium(III) chloride heptahydrate], the “effects on CRE, BUN and IP relative to the cerium oxide dispersion, per molar amount of cerium” value in series [1] (adenine group normalized at 100) lay in the range of 4 to 9 times. Moreover, in series [1] (setting [4]), the “alanine aminotransferase (ALT)” value was “equivalent to that in the normal group; also recorded: equivalent to the level of the normal group”, the “blood urea nitrogen (BUN)” value was “declines depending on the cerium chloride content (mol) in 100 g of feed; also recorded: decrease as the cerium chloride content in the feed increased”, the “serum creatinine (CRE)” value was “declines depending on the cerium chloride content (mol) in 100 g of feed; also recorded: decrease as the cerium chloride content in the feed increased” and the “serum phosphorus (IP)” value is “declines depending on the cerium chloride content (mol) in 100 g of feed; also recorded: decrease as the cerium chloride content in the feed increased”.
As for `O=C([O-])[O-].O=C([O-])[O-].O=C([O-])[O-].[La+3].[La+3]` [lanthanum carbonate], in series [2] (pH 2.5, 38° C.), the “mass of the particle required to entirely adsorb 3 mmol of phosphoric acid” value turned out to be 1.15 g. Besides, the “mass of the particle required to entirely adsorb 3 mmol of phosphoric acid” value in series [2] (pH 7.0, 38° C.) came to 5.95 g. In addition, in series [3] (Days 0-28), the “blood urea nitrogen (BUN)” value was “slightly increase as compared with the cerium oxide-added groups” and the “serum creatinine (CRE)” value is listed as “slightly increase as compared with the cerium oxide-added groups”. In series [3] (blood of the last day), the “serum ALT (GPT) level” value was “distinctively increased as compared with those of the non-added group”.
